From publication PMC12477080, “Polychlorinated biphenyls (PCBs) interact with drug metabolism in vivo” (Archives of Toxicology, 2025) come the findings set out here.

Series [1] in a line: Determination of PCB concentrations in plasma of HELPcB and control participants. Format: in vivo. The settings on record: human plasma, N 10; for PCB plasma concentration, Geometric mean, HELPcB: HELPcB group; for PCB plasma concentration, Geometric mean, Control: control group. Here is the method:
The laboratory regularly participates in round robins for the determination of PCBs in plasma (www.g-equas.de).
Plasma concentrations of PCB congeners were quantified in blood samples from all participants using gas chromatography/mass spectrometry (GC–MS) (Fig. 2A and Supplementary Table 2). A total of 19 PCB congeners were measured in control (n = 10) and HELPcB (n = 10) participants, with PCBs detected in all individuals. […] In the control group, PCB plasma concentrations primarily reflected background environmental exposure, such as dietary intake, representing the general population’s burden.

Series [2] in a line: Stability of substrates and metabolites in quality control samples (benchtop, autosampler, freeze-thaw). It is filed as physicochemical. The settings on record: for Autosampler stability (24 h) Av. Accuracy (%): 10° C for 24 hours in the autosampler; for 3x freeze-thaw Av. Accuracy (%): after three freeze-thaw cycles; for Benchtop stability (19 h) Ac. Accuracy (%): room temperature for 19 hours. An excerpt: The method was validated for intra- and interday accuracy and precision, stability, and matrix effects. […] Validation details are provided in Supplementary Tables 5–7 and supplemental Fig. 3. Glucuronidase/sulfatase digests were used to isolate CYP-specific metabolic activities, reducing interference from polymorphic UDP-glucuronosyltransferase (UGT) and sulfotransferase isoforms.
Supplemental table 6: Stability of the substrates and metabolites. Quality control samples were left at room temperature for 19 hours (benchtop stability) and at 10° C for 24 hours in the autosampler (autosampler stability) or were measured after three freeze-thaw cycles. Stability samples were measured against a freshly prepared set of calibrators and quality control samples.

Regarding `Clc1ccc(-c2cc(Cl)c(Cl)c(Cl)c2Cl)cc1` [PCB 114], in series [1], the “PCB plasma concentration, Geometric mean, HELPcB” value (shortened to “PCB plasma concentration … HELPcB”) is 0.008 ng/mL and the “PCB plasma concentration, Geometric mean, Control” value (“PCB plasma concentration … Control” for short) is “BLQ”.

For the compound `Clc1cc(-c2ccc(Cl)c(Cl)c2Cl)cc(Cl)c1Cl` [PCB 157], in series [1], the “PCB plasma concentration … HELPcB” value came out at 0.016 ng/mL and the “PCB plasma concentration … Control” value amounted to 0.005 ng/mL.

`Clc1cc(-c2cc(Cl)c(Cl)c(Cl)c2Cl)cc(Cl)c1Cl` [PCB 189]: in series [1], the “PCB plasma concentration … HELPcB” value is 0.014 ng/mL and the “PCB plasma concentration … Control” value was 0.007 ng/mL.

Turning to `Clc1cc(Cl)c(-c2cc(Cl)c(Cl)cc2Cl)cc1Cl` [PCB 153], in series [1], the “PCB plasma concentration … HELPcB” value is 0.919 ng/mL and the “PCB plasma concentration … Control” value was 0.297 ng/mL.

Regarding `Clc1ccc(-c2ccc(Cl)c(Cl)c2Cl)cc1Cl` [PCB 105], in series [1], the “PCB plasma concentration … HELPcB” value worked out at 0.014 ng/mL and the “PCB plasma concentration … Control” value is listed as “BLQ”.

For the compound `Clc1ccc(-c2cc(Cl)c(Cl)c(Cl)c2)cc1` [PCB 81], in series [1], the “PCB plasma concentration … HELPcB” value is “BLQ” and the “PCB plasma concentration … Control” value is recorded as “BLQ”.

In the case of `Clc1ccc(-c2ccc(Cl)c(Cl)c2)cc1Cl` [PCB 77], in series [1], the “PCB plasma concentration … HELPcB” value is recorded as “BLQ” and the “PCB plasma concentration … Control” value is “BLQ”.

For `Clc1cc(-c2cc(Cl)c(Cl)c(Cl)c2)cc(Cl)c1Cl` [PCB 169], in series [1], the “PCB plasma concentration … HELPcB” value is on record as “BLQ” and the “PCB plasma concentration … Control” value is “BLQ”.

Turning to `Clc1cc(Cl)c(-c2cc(Cl)c(Cl)c(Cl)c2)cc1Cl` [PCB 167], in series [1], the “PCB plasma concentration … HELPcB” value came out at 0.027 ng/mL and the “PCB plasma concentration … Control” value came to 0.008 ng/mL.

Consider `Clc1ccc(-c2cc(Cl)c(Cl)c(Cl)c2)cc1Cl` [PCB 126], for which, in series [1], the “PCB plasma concentration … HELPcB” value is listed as “BLQ” and the “PCB plasma concentration … Control” value is on record as “BLQ”.

Regarding `Clc1cc(Cl)c(-c2cc(Cl)c(Cl)c(Cl)c2Cl)cc1Cl` [PCB 180], in series [1], the “PCB plasma concentration … HELPcB” value came to 0.808 ng/mL and the “PCB plasma concentration … Control” value worked out at 0.372 ng/mL.

As for `Clc1ccc(Cl)c(-c2cc(Cl)c(Cl)cc2Cl)c1` [PCB 101], in series [1], the “PCB plasma concentration … HELPcB” value stood at 0.005 ng/mL and the “PCB plasma concentration … Control” value is reported as “BLQ”.

Take `Clc1ccc(Cl)c(-c2cc(Cl)ccc2Cl)c1` [PCB 52]: in series [1], the “PCB plasma concentration … HELPcB” value is “BLQ” and the “PCB plasma concentration … Control” value is recorded as “BLQ”.

Consider `O=C1Nc2ccc(Cl)cc2[C@@](C#CC2CC2)(C(F)(F)F)O1` [efavirenz, reference compound], for which the “Autosampler stability (24 h) Av. Accuracy (%)” value (“Autosampler stability … (%)” for short) in series [2] (QC conc. 0,63 ng/ml) is recorded as 109,58%; in series [2] (QC conc. 150 ng/ml), 115,3%; in series [2] (QC conc. 375 ng/ml), 106,16%; in series [2] (QC conc. 1,25 ng/ml) it was 114,46%; in series [2] (QC conc. 3,75 ng/ml), 114,56%. The “3x freeze-thaw Av. Accuracy (%)” value is on record as 124,41% in series [2] (QC conc. 0,63 ng/ml); 112,08% in series [2] (QC conc. 150 ng/ml); 107,17% in series [2] (QC conc. 375 ng/ml); 117,78% in series [2] (QC conc. 1,25 ng/ml); 111,15% in series [2] (QC conc. 3,75 ng/ml). For the same compound, the “Benchtop stability (19 h) Ac. Accuracy (%)” value (“Benchtop stability … (%)” below) in series [2] (QC conc. 0,63 ng/ml) is 92,21%; in series [2] (QC conc. 150 ng/ml) it was 111,5%; in series [2] (QC conc. 375 ng/ml) it was 104,9%; in series [2] (QC conc. 1,25 ng/ml) it was 102,48%; in series [2] (QC conc. 3,75 ng/ml), 107,06%.

On to `Clc1ccc(-c2cc(Cl)c(Cl)c(Cl)c2)c(Cl)c1` [PCB 123], for which, in series [1], the “PCB plasma concentration … HELPcB” value is given as “BLQ” and the “PCB plasma concentration … Control” value is listed as “BLQ”.

As to `Clc1ccc(-c2cc(Cl)c(Cl)c(Cl)c2Cl)cc1Cl` [PCB 156], in series [1], the “PCB plasma concentration … HELPcB” value was found to be 0.097 ng/mL and the “PCB plasma concentration … Control” value amounted to 0.036 ng/mL.

Turning to `Clc1ccc(-c2ccc(Cl)cc2Cl)cc1` [PCB 28], in series [1], the “PCB plasma concentration … HELPcB” value was found to be 0.014 ng/mL and the “PCB plasma concentration … Control” value came to 0.006 ng/mL.

As to `COCC(O)c1ccc(OCC(O)CNC(C)C)cc1` (centres unmarked) [OH-metoprolol], the “Autosampler stability … (%)” value in series [2] (QC conc. 0,5 ng/ml) was 101,05%; in series [2] (QC conc. 0,25 ng/ml), 90,24%; in series [2] (QC conc. 60 ng/ml) it was 97,01%; in series [2] (QC conc. 150 ng/ml) it was 88,29%; in series [2] (QC conc. 1,5 ng/ml), 96,56%. For the same compound, the “3x freeze-thaw Av. Accuracy (%)” value is 95,27% in series [2] (QC conc. 0,5 ng/ml); 85,17% in series [2] (QC conc. 0,25 ng/ml); 91,98% in series [2] (QC conc. 60 ng/ml); 87,96% in series [2] (QC conc. 150 ng/ml); 95,33% in series [2] (QC conc. 1,5 ng/ml). For the same compound, the “Benchtop stability … (%)” value was 90,1% in series [2] (QC conc. 0,5 ng/ml); 81,14% in series [2] (QC conc. 0,25 ng/ml); 95,47% in series [2] (QC conc. 60 ng/ml); 88,26% in series [2] (QC conc. 150 ng/ml); 94,57% in series [2] (QC conc. 1,5 ng/ml).

Turning to `O=C1Nc2c(O)cc(Cl)cc2[C@@](C#CC2CC2)(C(F)(F)F)O1` [8-OH-efavirenz], the “Autosampler stability … (%)” value is recorded as 86,73% in series [2] (QC conc. 0,5 ng/ml); 86,81% in series [2] (QC conc. 0,25 ng/ml); 86,15% in series [2] (QC conc. 60 ng/ml); 78,85% in series [2] (QC conc. 150 ng/ml); 88,49% in series [2] (QC conc. 1,5 ng/ml). Further, the “3x freeze-thaw Av. Accuracy (%)” value in series [2] (QC conc. 0,5 ng/ml) is recorded as 84,9%; in series [2] (QC conc. 0,25 ng/ml) it was 84,61%; in series [2] (QC conc. 60 ng/ml), 79,98%; in series [2] (QC conc. 150 ng/ml), 77,49%; in series [2] (QC conc. 1,5 ng/ml), 79,73%. The “Benchtop stability … (%)” value was 74,06% in series [2] (QC conc. 0,5 ng/ml); 69,5% in series [2] (QC conc. 0,25 ng/ml); 77,52% in series [2] (QC conc. 60 ng/ml); 74,14% in series [2] (QC conc. 150 ng/ml); 76,61% in series [2] (QC conc. 1,5 ng/ml).
